Assay results published in PMC12737022, “Evaluations of Sex Differences in Dosimetry in Rats Following Perfluorohexanesulfonamide (PFHxSA) Oral Exposure” (Toxics, 2025).
“And” between values parts separate entries of the source, which are not always exact repeats. Identical values can stand only once. Like-named read-outs stand apart in the source and are kept apart here.

How the values were obtained:
[1] = Liver dosimetry of PFHxSA and PFHxS by targeted LC/MS/MS; type: in vivo, rat; conditions: for concentration at 24 h: Sprague Dawley (Crl:CD(SD)), rat, liver, oral
Excerpt: The plasma and liver samples for this investigation were provided by Mutlu et al.. The study design, including detailed descriptions of animal handling, procedures for dosing, clinical observations, termination, and collection of tissues, is reported elsewhere and is consistent with the ARRIVE guidelines. Briefly, male and female Sprague Dawley (SD) rats (Crl:CD(SD)) (n = 48/sex, 96 total) were purchased from Charles River Laboratory (Raleigh, NC, USA) and allowed to acclimate for ≥5 days before initial dosing. Rats were 8–10 weeks old at the time of exposure. PFHxSA dosing solutions in corn oil were prepared on Day 0 and used over the course of the study. Rats of both sexes (n = 5/sex, dose, and time point, plus eight vehicle controls per sex) were dosed by oral gavage (5 mL/kg body weight) once daily for five days. […] The formulation concentrations decreased from 100 mg/kg/day at half-log10 intervals until the lowest dose level, which was a full log10 interval below the next higher dose, giving eight dose levels (0.01 to 100 mg/kg/day or 0.025 µmol/kg/day to 250 µmol/kg/day) in addition to vehicle controls. Doses were administered in randomized order within ± 1 h on each day of dosing. […] Rats were euthanized 24 h after the last dose. Blood was collected via cardiac puncture with tripotassium ethylene diamine tetraacetic acid (K3EDTA) as an anti-coagulant and centrifuged to collect cell-free plasma. Liver was collected and flash-frozen in liquid nitrogen. Liver, plasma, and dosing formulation samples were frozen at the USEPA Center for Computational Toxicology and Exposure (CCTE), Durham, NC, USA. Tissue samples (plasma and liver, n = 96 each) were stored at ≤−70 °C prior to extraction; dosing formulation samples (n = 9) were stored at −20 °C.
Detailed information on solvents and standards used for targeted LC/MS/MS of PFHxSA and PFHxS can be found in SI Text S1 and SI Table S1. Plasma and liver preparations were modified from Conley et al.. Briefly, aliquots of plasma (25 µL) and liver (~10 mg) were spiked with PFOSA as an internal standard, as no isotope-labeled PFHxSA was available. Sample batches included up to 96 samples along with an MB, CCV, and LCS for QC. Commercial plasma (mixed-sex SD rat plasma) and liver (mixed-sex SD rat) were obtained from BioIVT (Westbury, NY, USA). Cold acetonitrile (ACN) with 0.1 M formic acid was used to precipitate proteins. Liver and plasma samples were prepared similarly, except that the livers were homogenized after solvent addition. Plasma samples were vortexed to mix before being chilled at −20 °C, after which samples were centrifuged at 5 °C and 10,000× g. Liver samples were chilled at −80 °C, then homogenized using an Omni International (Kennesaw, GA, USA) Bead Ruptor 24. Liver homogenates were centrifuged at 26,000× g and 5 °C. Supernatants from the extraction of both matrices were removed and stored at −20 °C until analysis. Refer to SI Text S4 for additional experimental details and information on calibration and QC parameters for quantitation of PFHxSA.
Targeted LC/MS/MS of PFHxSA was performed on a Sciex 4000 QTRAP LC/MS/MS system operated in negative ESI mode with MRM scanning. A Restek (Bellefonte, PA, USA) Raptor Polar X (100 mm × 2 mm, 2.7 µm) column was used for liquid chromatography. Isocratic elution occurred over 10 min with a 30:70 ratio of mobile phase A (10 mM ammonium formate): mobile phase B (60:40 ACN: methanol). Both mobile phases included 0.05% formic acid. The LOQs for PFHxSA were 0.100 µM in plasma and 0.351 µM in liver. Additional details of the instrument method parameters for targeted analysis of PFHxSA are provided in SI Table S5. The MRM transitions for the PFHxSA method are provided in SI Table S6. […]

[2] = In vitro-in vivo extrapolation (IVIVE) to estimate Css, rat
Protocol: (§1) Intrinsic hepatic clearance (Clint) and fraction unbound in plasma (fup) were calculated from the experimental point estimate data as described in Dobreniecki et al.. Steady-state concentrations (Css) were derived based on zero-order uptake of an assumed daily dose from the gut (assuming 100% intestinal bioavailability) but considering hepatic clearance and non-metabolic renal clearance. Renal clearance was calculated using the glomerular filtration rate (a species-dependent constant) and the fraction unbound in blood (fub), estimated by adjusting the experimental fup for blood/plasma partitioning. The Css calculations, along with underlying species-specific physiologic scalars, are detailed in SI Texts S6 and S7. […]
(§2) hepatocytes). In equation (C), the scalar 2000 is used to adjust the assay cell number to be consistent with units of 1 million cells in the Clint equation.
(§3) Text S7 In Vitro-In Vivo Extrapolation (IVIVE) Calculations
(§4) The pharmacokinetic equation used to estimate expected steady-state concentrations (Css) is based on zero-order uptake of a daily dose from the gut (assuming 100% bioavailability) with both nonmetabolic renal clearance (Clrenal) and hepatic clearance (Clhepatic) (Equation D). The chemical input rate (ko) is the product of the intake dosage and the model body weight; this represents the numerator of Equation D. The Clrenal calculation is shown in the first part of the denominator of Equation D; it is the product of the species-dependent glomerular filtration rate (GFR) and the unbound fraction in blood (fub) of the parent compound. The Clhepatic calculation is shown in the second part of the denominator of Equation D; it is the product of the species-dependent liver blood flow constant, the fub of the parent compound, and the experimentally derived intrinsic clearance (shown in Equation C) divided by the sum of these three values. All values used in Equation D are for first-order conditions of metabolism in the […]

[3] = In vitro-in vivo extrapolation (IVIVE) to estimate Css, human
Protocol: as §1, §2, §3, §4

[4] = set-up: method as in Smeltz et al. [60]; conditions: ref Smeltz et al. [60], cited from earlier work

In the case of `NS(=O)(=O)C(F)(F)C(F)(F)C(F)(F)C(F)(F)C(F)(F)C(F)(F)F` [PFHxSA, Perfluorohexanesulfonamide], the “PFHxSA Female Liver Conc. (wet weight)” value ([1]; PFHxSA 0.1 mg/kg/day oral 5 days, female, individual rats) is reported as 0.491 µM and 0.599 µM and 0.338 µM and 0.434 µM, the “PFHxSA Male Liver Conc. (wet weight)” value ([1]; PFHxSA 0.1 mg/kg/day oral 5 days, male, individual rats) is reported as 0.191 ng/mg and 0.0842 ng/mg and 0.479 µM and 0.211 µM and 0.156 ng/mg and 0.391 µM and 0.746 µM and 0.503 µM and 0.298 ng/mg and 0.201 ng/mg and the “PFHxSA Female Liver Conc. (wet weight)” value ([1]; PFHxSA 0.3 mg/kg/day oral 5 days, female, individual rats) is reported as 1.47 µM and 1.96 µM and 1.26 µM and 1.74 µM. For the same compound, the “PFHxSA Male Liver Conc. (wet weight)” value ([1]; PFHxSA 0.3 mg/kg/day oral 5 days, male, individual rats) was 0.462 ng/mg and 0.399 ng/mg and 1.26 µM and 0.604 µM and 1.30 µM and 1.16 µM and 1.00 µM and 0.503 ng/mg, the “PFHxSA Female Liver Conc. (wet weight)” value ([1]; PFHxSA 1 mg/kg/day oral 5 days, female, individual rats) was 2.91 µM and 2.52 µM and 4.17 µM and 4.76 µM and 6.64 µM and the “PFHxSA Male Liver Conc. (wet weight)” value ([1]; PFHxSA 1 mg/kg/day oral 5 days, male, individual rats) was 0.846 ng/mg and 1.00 ng/mg and 1.09 ng/mg and 1.18 ng/mg and 2.12 µM and 2.51 µM and 2.73 µM and 2.97 µM. For the same compound, the “PFHxSA Female Liver Conc. (wet weight)” value ([1]; PFHxSA 3 mg/kg/day oral 5 days, female, individual rats) was 7.94 µM and 4.86 µM and 6.40 µM and 9.55 µM and 10.8 µM, the “PFHxSA Male Liver Conc. (wet weight)” value ([1]; PFHxSA 3 mg/kg/day oral 5 days, male, individual rats) was 1.92 ng/mg and 1.86 ng/mg and 1.63 ng/mg and 2.14 ng/mg and 4.81 µM and 4.67 µM and 4.08 µM and 5.36 µM and the “PFHxSA Female Liver Conc. (wet weight)” value ([1]; PFHxSA 10 mg/kg/day oral 5 days, female, individual rats) was 6.97 µM and 8.65 µM and 7.58 µM and 9.86 µM. The “PFHxSA Male Liver Conc. (wet weight)” value ([1]; PFHxSA 10 mg/kg/day oral 5 days, male, individual rats) was 5.65 ng/mg and 3.24 ng/mg and 4.53 ng/mg and 4.26 ng/mg and 14.2 µM and 8.13 µM and 11.4 µM and 10.7 µM, the “PFHxSA Female Liver Conc. (wet weight)” value ([1]; PFHxSA 30 mg/kg/day oral 5 days, female, individual rats) was 15.8 ng/mg and 7.72 ng/mg and 10.1 ng/mg and 8.88 ng/mg and 23.9 µM and 39.6 µM and 19.4 µM and 25.2 µM and 22.3 µM and the “PFHxSA Male Liver Conc. (wet weight)” value ([1]; PFHxSA 30 mg/kg/day oral 5 days, male, individual rats) was 4.86 ng/mg and 3.36 ng/mg and 4.47 ng/mg and 6.25 ng/mg and 12.2 µM and 8.43 µM and 11.2 µM and 15.7 µM. For the same compound, the “PFHxSA Female Liver Conc. (wet weight)” value ([1]; PFHxSA 100 mg/kg/day oral 5 days, female, individual rats) was 20.7 ng/mg and 12.3 ng/mg and 37.7 ng/mg and 20.9 ng/mg and 16.1 ng/mg and 52.0 µM and 30.8 µM and 94.6 µM and 52.3 µM and 40.3 µM, the “PFHxSA Male Liver Conc. (wet weight)” value ([1]; PFHxSA 100 mg/kg/day oral 5 days, male, individual rats) was 14.9 ng/mg and 19.0 ng/mg and 6.87 ng/mg and 4.89 ng/mg and 5.61 ng/mg and 37.4 µM and 47.6 µM and 17.2 µM and 12.3 µM and the concentration at 24 h ([1]; female, 0.1 mg/kg/day, PFHxSA 0.1 mg/kg/day oral 5 days, female, individual rats, read-out: PFHxSA Female Liver Conc. (wet weight)) was 436 nM and 174 ng/g. The concentration at 24 h ([1]; female, 0.3 mg/kg/day, PFHxSA 0.3 mg/kg/day oral 5 days, female rats, mean ± SD, read-out: PFHxSA Female Liver Conc.) was 1.69 ± 0.32 µM, the concentration at 24 h ([1]; female, 0.3 mg/kg/day, PFHxSA 0.3 mg/kg/day oral 5 days, female, individual rats, read-out: PFHxSA Female Liver Conc. (wet weight)) was 2.03 µM and 811 ng/g and the concentration at 24 h ([1]; female, 1 mg/kg/day, PFHxSA 1 mg/kg/day oral 5 days, female rats, mean ± SD, read-out: PFHxSA Female Liver Conc.) was 4.2 ± 1.6 µM. The concentration at 24 h ([1]; female, 3 mg/kg/day, PFHxSA 3 mg/kg/day oral 5 days, female rats, mean ± SD, read-out: PFHxSA Female Liver Conc.) was 7.91 ± 2.4 µM, the concentration at 24 h ([1]; female, 10 mg/kg/day, PFHxSA 10 mg/kg/day oral 5 days, female rats, mean ± SD, read-out: PFHxSA Female Liver Conc.) was 8.41 ± 1.1 µM and the concentration at 24 h ([1]; female, 10 mg/kg/day, PFHxSA 10 mg/kg/day oral 5 days, female, individual rats, read-out: PFHxSA Female Liver Conc. (wet weight)) was 8.98 µM and 3580 ng/g. The concentration at 24 h ([1]; female, 30 mg/kg/day, PFHxSA 30 mg/kg/day oral 5 days, female rats, mean ± SD, read-out: PFHxSA Female Liver Conc.) was 26.1 ± 7.9 µM, the concentration at 24 h ([1]; male, 0.3 mg/kg/day, PFHxSA 0.3 mg/kg/day oral 5 days, male rats, mean ± SD, read-out: PFHxSA Male Liver Conc.) was 1.06 ± 0.28 µM and the concentration at 24 h ([1]; male, 1 mg/kg/day, PFHxSA 1 mg/kg/day oral 5 days, male rats, mean ± SD, read-out: PFHxSA Male Liver Conc.) was 2.48 ± 0.39 µM. For the same compound, the concentration at 24 h ([1]; male, 1 mg/kg/day, PFHxSA 1 mg/kg/day oral 5 days, male, individual rats, read-out: PFHxSA Male Liver Conc. (wet weight)) was 821 ng/g and 2.06 µM, the concentration at 24 h ([1]; male, 3 mg/kg/day, PFHxSA 3 mg/kg/day oral 5 days, male rats, mean ± SD, read-out: PFHxSA Male Liver Conc.) was 4.67 ± 0.47 µM and the concentration at 24 h ([1]; male, 3 mg/kg/day, PFHxSA 3 mg/kg/day oral 5 days, male, individual rats, read-out: PFHxSA Male Liver Conc. (wet weight)) was 1780 ng/g and 4.45 µM. For the same compound, the concentration at 24 h ([1]; male, 10 mg/kg/day, PFHxSA 10 mg/kg/day oral 5 days, male rats, mean ± SD, read-out: PFHxSA Male Liver Conc.) was 10.6 ± 2.5 µM, the concentration at 24 h ([1]; male, 10 mg/kg/day, PFHxSA 10 mg/kg/day oral 5 days, male, individual rats, read-out: PFHxSA Male Liver Conc. (wet weight)) was 3370 ng/g and 8.44 µM and the concentration at 24 h ([1]; male, 30 mg/kg/day, PFHxSA 30 mg/kg/day oral 5 days, male rats, mean ± SD, read-out: PFHxSA Male Liver Conc.) was 11.6 ± 2.6 µM. The concentration at 24 h ([1]; male, 30 mg/kg/day, PFHxSA 30 mg/kg/day oral 5 days, male, individual rats, read-out: PFHxSA Male Liver Conc. (wet weight)) was 4320 ng/g and 10.8 µM, the “Css (steady-state concentration)” value ([2]; Rat, IVIVE-derived, assumes 1 mg/kg/day exposure) was 138 µM and the CL renal ([2]; Rat, non-metabolic, GFR x fub, read-out: Clrenal (renal clearance) (converted)) was 0.00167 mL/min. For the same compound, the “IVIVE-derived Css higher than in vivo plasma concentration” value ([2]; rat, 1 mg/kg/day, female and male rat plasma, respectively) was 6.5–12.1 fold and 6.5–12 fold, the “Css (steady-state concentration)” value ([3]; Human, IVIVE-derived, assumes 1 mg/kg/day exposure) was 1510 µM and the CL renal ([3]; Human, non-metabolic, GFR x fub, read-out: Clrenal (renal clearance) (converted)) was 0.0817 mL/min. For the same compound, the “Predicted Css in humans higher than rats” value ([3]; cross-species IVIVE comparison) was 3- to 10 fold, the “fup (fraction unbound in plasma)” value ([4]; Human plasma) was 0.0004 ^1 and the “fub (fraction unbound in blood)” value ([4]; Human) was 0.0007 ^1.
